We go through one compound from article PMC11874377, “Fungal-derived methyldeoxaphomins target Plasmodium falciparum segregation through the inhibition of PfActin1” (Proceedings of the National Academy of Sciences of the …, 2025).

By EC50 is commonly meant the concentration giving half of the maximal effect.

Read-outs that look alike come from different tables or passages of the source. Some results are limits rather than exact numbers.

Data set [1] relates to human HepG2 hepatoma cells. The data set is described as follows: cells. The format is cell-based. To be noted: for EC50: Homo sapiens. The method, then: The antiplasmodial activity of these analogs was assessed in P. falciparum asexual blood stage using a SYBR Green I-based assay. Compounds were tested in both the multidrug resistant line Dd2, and the chloroquine-sensitive line 3D7, to probe any potential for preexisting resistance. […] These methyldeoxaphomin analogs were also cross-screened for cytotoxicity in the human cell line HepG2 to determine their selectivity for the Plasmodium parasite. […] This effect was maintained with analog NPDG-F where both R1 and R2 were substituted with OH groups. […] In addition, the hydroxyl group at carbon 7 seems to be critical for function as a drastic loss of potency was found in NPDG-D as compared to B and C. […]
Cytotoxicity was assessed using an MTS (3-(4,5-Dimethylthiazol-2-yl)-5-(3-carboxymethoxyphenyl)-2-(4-sulfophenyl)-2H-tetrazolium) absorbance assay with human HepG2 hepatoma cells. Cells were maintained in MEM supplemented with 10%FBS, 1% Antibiotic/Antimycotic, 1 mM sodium pyruvate, and 0.15% sodium bicarbonate in a 5 % CO2, 95% air environment at 37°C. For the assay cells were seeded at a density of 2,250 cells per well on 384-well microtiter plates 24 h prior to compound addition. Following a 48-h incubation with compounds, MTS solution was added to wells and absorbance was read after 2-4 h on a Synergy Neo2 multimode reader (BioTek Winsooki, VT). Compound dose response curves and EC50 determination was performed using CDD Vault normalized to 5% triton and vehicle controls. […]

The next data set deals with Dd2. As to the kind of experiment: Rate of killing assay by flow cytometry. Conditions: 10 × EC50 for 12, 24, or 48 h. The format is cell-based, Plasmodium falciparum. The method, then:
After a 24 h lag phase, only 10^0.64 parasites are killed within the first replication cycle (48 h). […] We also examined the in vitro killing rate in Dd2 through flow cytometric analysis.
Following the previously described protocol (Collins et al., 2021), compound or vehicle control was added to Dd2 culture in the majority ring stage and incubated for either 12, 24, or 48 h prior to compound removal. Samples were then taken at the time of compound removal, and every 24 h for 6 days for flow analysis with SYBR Green I and Mitotracker Deep red FM. Analysis was performed in Flowjo version 10 with gating using DHA, vehicle, no mitotracker, no staining, and uninfected RBC controls. Cells designated as SYBR positive and mitotracker positive were gated as “viable parasites” and graphed using Graphpad Prism version 10. […]
For orientation: Flow cytometry measures light scatter and fluorescence of single cells or particles in a stream.

A further data set relates to P. falciparum. The data set is described as follows: Parasite reduction ratio (PRR). It counts as cell-based, Plasmodium falciparum. To be noted: 10 × EC50. On the procedure: After a 24 h lag phase, only 10^0.64 parasites are killed within the first replication cycle (48 h). […] We also examined the in vitro killing rate in Dd2 through flow cytometric analysis. […]
Parasite reduction ratio adapted from protocol by Sanz et al (Sanz et al., 2012). In brief, early ring stage mono-infected RBCs at 106 were incubated with a 10 x EC50 concentration of NPDG-F, DHA, or atovaquone for either 24, 48, 72, 96, or 120 h. Following incubations, cells were washed and serially diluted. After 3 weeks, growth was determined via SYBR […]
Green I staining. […]

As to `C=C1C(C)C2C(Cc3ccccc3)NC(=O)C23C(=O)C=CC(O)C(O)C(C)CC(C)CC=CC3C1O` (stereo not shown) [Methyldeoxaphomin NPDG-F], in data set [1] (25 µM), the “cytotoxicity in HepG2 at the highest concentration tested” value is given as “no signs of cytotoxicity”. Besides, the “Selectivity Index (SI)” value in data set [1] (HepG2 EC50/(mean of Dd2 EC50, 3D7 EC50)) is listed as more than 60. In addition, in data set [1] (HepG2, 48 h, means from triplicate experiments ± SEM, 48-h incubation, read-out: HepG2 EC50), the EC50 was more than 25 µM. Besides, the 50% effective concentration (EC50) in data set [1] (HepG2, average ± SEM of three replicates, read-out: HepG2: Average EC50) is more than 25 µM. Also, in data set [1] (HepG2, individual replicates, read-out: HepG2: EC50), the EC50 was more than 25 µM. Further, the “in vitro killing rate phenotype” value with Dd2 was “delayed inhibition phenotype and a cytocidal killing profile”. Besides, in the data set with P. falciparum, the “99.9% PCT (parasite clearance time)” value is given as “more than 96 h”, the killing profile entry is recorded as “gradual killing profile”, the lag phase was 24 h and the “log(PRR)” value stood at 0.64.
